Molecules are shown by their SMILES. Like-named read-outs stand apart in the source and are kept apart here.

Series [1] deals with mice receiving 60 mg/kg/day 3-nitropropionic acid (progressive lethal mitochondrial energy failure). As to the kind of experiment: Protection against mortality caused by 3-nitropropionic acid (Example 6, 11 day study). In kind it is in vivo, Female CD-1 mice. To be noted: for Median Survival / % Survival: 3-NP 60 mg/kg/day ip, UTA 1000 mg/kg b.i.d. or AcAcDAU 1113.5 mg/kg b.i.d. oral; for survival time versus vehicle alone: UTA 1000 mg/kg or AcAcDAU 1113.5 mg/kg b.i.d.; for % Survival: end of 11 day study. How it is done:
5′-O-acetoacetyl-2′,3′-di-O-acetyluridine (AcAcDAU) delivers both uridine and acetoacetate (and beta-hydroxybutyrate [BHB] derived from acetoacetate) into the circulation after oral administration. A study was designed to compare relative efficacy of UTA versus AcAcDAU in a model of progressive lethal mitochondrial energy failure. Mitochondrial dysfunction was produced by daily administration of 3-nitropropionic acid (3-NP; 60 mg/kg/day) by intraperitoneal injection. 3-NP is an irreversible inhibitor of succinate dehydrogenase (Complex II of the mitochondrial electron transport chain). Daily dosing with 3-NP results in progressive diminution of mitochondrial capacity to maintain ATP production, eventually resulting in mortality from both neurodegeneration and cardiomyopathy.
Female CD-1 mice at approximately 16 weeks of age were divided into weight-matched groups of 10 mice each. All mice received daily intraperitoneal injections of 3-NP (60 mg/kg) in a volume of 0.01 ml per gram of body weight.
In addition to daily injections of 3-NP, the three groups of mice received 1) Vehicle; 2) UTA; or 3) AcAcDAU. This experiment used the AcAcDAU from Example 2. These treatments were administered orally, by gavage, in a volume of 0.02 ml per gram of body weight.
• 1. Vehicle Control (0.75% HPMC; hydroxypropylmethylcellulose) • 2. Uridine triacetate 1000 mg/kg BID (suspended in 0.75% HPMC) • 3. AcAcDAU 1113.5 mg/kg (molar equivalent to 1000 mg/kg UTA) BID (dissolved in 0.75% HPMC)
(§1) Body weights were recorded each day to adjust drug doses as mice lost weight during repeated treatment with 3-NP.
Survival times (median survival; the time point at which 50% of animals in a group had died) and percent survival at the end of the 11 day study were used to quantify and compare protective effects of the test agents.

Series [2] is described as follows: Plasma uridine, uracil and beta-hydroxybutyrate in mice after oral administration of AcAcDAU (Example 5). Format: in vivo, Female CD-1 mice. As to conditions: 2350 mg/Kg oral, 15-120 min, result in words. The text has this: An important feature of 5′-O-(acetoacetyl)-2′,3′-di-O-acetyluridine (AcAcDAU) is that it yields simultaneous or concurrent delivery of both uridine and acetoacetate via a single drug molecule. Acetoacetate in plasma is in equilibrium with beta-hydroxybutyrate (BHB) mirroring free NADH/NAD+ ratios in hepatic mitochondria, and heavily favoring BHB as the more prevalent of the two ketone bodies under normal physiological conditions. Moreover, BHB is stable after blood sampling and processing, whereas acetoacetate is labile. Therefore, plasma BHB was measured along with plasma uridine in mice receiving oral AcAcDAU.
Chemical(s): HPMC (Hydroxypropyl) methyl cellulose (SIGMA-Aldrich: cat #H3785, CAS 9004-65-3), 5′-O-(acetoacetyl)-2′,3′-di-O-acetyluridine (AcAcDAU; lot #432168B). This experiment used the AcAcDAU from Example 2.
(§2) Vehicle: Aqueous HPMC was used as a vehicle for oral administration of the uridine derivatives.
Dosing Formulation: UTA and other uridine derivatives were prepared in 0.75% HPMC. AcAcDAU was added to 0.75% HPMC and homogenized to eliminate clumps. The suspensions were made up to the desired volume and concentration and sonicated to disaggregate any small leftover clumps into fine particles. Suspensions were stored at 4° C. until use. Suspensions were used within 24 hrs of preparation.
Dosing: Mice received a dose of 2350 mg/Kg AcAcDAU gavaged at 0.02 ml/g body weight. Control mice received only the 0.75% HPMC vehicle
General Experimental Design: The general layout for the experiment involved gavaging mice with AcAcDAU and obtaining blood samples at several time points thereafter (see table below for details). The experiment included a group with 2 mice gavaged with HPMC only and bled at 60 and 120 min for determination of baseline plasma uridine.
Mice received 0.02 ml/g bodyweight of a suspension (0.75% hydroxypropylmethylcellulose in water) with a concentration of AcAcDAU of 117 mg/ml for a dose of 2,350 mg/Kg body weight. […]

Series [3] is described as follows: Plasma uridine and [uridine+uracil] in mice after oral administration of uridine prodrugs (Example 4). Format: in vivo, Female CD-1 mice. As to conditions: for systemic uridine delivery after oral administration: oral gavage, dose equimolar to 600 mg/Kg UTA, result in words.
Text: Chemical(s): HPMC (Hydroxypropyl)methyl cellulose (SIGMA-Aldrich: cat #H3785, CAS 9004-65-3); uridine triacetate (2′,3′,5′-tri-O-acetyluridine): UTA, Item Code D000156, Lot #Q000001095, made by Almac Sciences; 2′,3′,5′-tri-O-(acetoacetyl)uridine: Tri-AcAcU; 5′-O-(acetoacetyl)-2′,3′-di-O-acetyluridine: AcAcDAU; 2′,3′-di-O-acetyl-5′-O-heptanoyluridine: DA-HU. (Note: the AcAcDAU used in this experiment was the mixture of 9.4 parts 5′-O-(acetoacetyl)-2′,3′-di-O-acetyluridine and 1 part a combination of 5′-O-(acetoacetyl)-2′-O-acetyl-3′-O-formyluridine and 5′-O-(acetoacetyl)-3′-O-acetyl-2′-O-formyluridine from Example 1 above.)
as §2
Dosing Formulation: UTA and other uridine derivatives were prepared in 0.75% HPMC. UTA and other uridine derivatives were added to 0.75% HPMC and homogenized to eliminate clumps. The suspension were made up to the desired volume and concentration and sonicated to disaggregate any small leftover clumps into fine particles. Suspensions were stored at 4° C. until use. Suspensions were used within 24 hrs of preparation.
Dosing: Mice received a dose of 600 mg/Kg UTA gavaged at 0.02 ml/g body weight. Other uridine derivatives were dosed in the same manner at concentrations containing amounts of uridine equimolar to UTA.
Animals: Female CD-1 mice.
The general initial layout for the experiment involved gavaging groups of 6 mice with uridine derivatives and obtaining blood samples at several times points thereafter (3 mice were bled for 2 time points (15 and 60 minutes), and another 3 mice were bled for the other 2 time points (30 and 120 minutes). Each experiment included an HPMC (vehicle only) time point with 3 mice to establish a baseline for blood uridine.
Blood samples were collected into plasma separation tubes, which were centrifuged immediately after blood collection, and aliquots of plasma were frozen for subsequent processing. Plasma was later deproteinated, and uridine and uracil were quantified by liquid chromatography using UV absorbance detection and mass spectrometry.
Delivery of uridine into the bloodstream was assessed by monitoring plasma uridine and the sum of uridine and uracil [uridine+uracil], as uracil is the first product in enzymatic degradation of uridine. Mice convert administered uridine to uracil more rapidly and extensively than do humans.

The subject of series [4] is mice receiving 60 mg/kg/day 3-nitropropionic acid (progressive mitochondrial failure). As to the kind of experiment: Protection against mortality due to 3-nitropropionic acid, higher doses (Example 7, 10 day study). Format: in vivo. As to conditions: for survival time versus vehicle alone: UTA 2000 mg/kg or AcAcDAU 2227 mg/kg b.i.d.; for % Survival: end of 10 day study, 3-NP 60 mg/kg/day ip, UTA 2000 mg/kg b.i.d. or AcAcDAU 2227 mg/kg b.i.d. oral. The procedure: In this example the effect of higher doses of UTA (2000 mg/kg/dose) versus equimolar AcAcDAU (2227 mg/kg/dose) were compared in the same model system.
• 1. Vehicle Control (0.75% HPMC; hydroxypropylmethylcellulose) • 2. Uridine triacetate 2000 mg/kg BID (suspended in 0.75% HPMC)
AcAcDAU 2227 mg/kg (molar equivalent to 2000 mg/kg UTA) BID (dissolved in 0.75% HPMC). This experiment used the AcAcDAU from Example 2. The treatment schedule was as follows:
as §1
Percent survival of mice in each group of 10 mice at the end of the 10 day study were used to quantify and compare protective effects of the test agents.

For series [5] the following is noted: humans; cited from earlier work.
For series [6] the following is noted: mice; cited from earlier work.

`CC(=O)CC(=O)OC[C@H]1O[C@@H](n2ccc(=O)[nH]c2=O)[C@H](OC(C)=O)[C@@H]1OC(C)=O` [AcAcDAU, 5′-O-(acetoacetyl)-2′,3′-di-O-acetyluridine]: in series [1], the “Median Survival” value is more than 11 days and the “% Survival” value is 50% (2/10). Further, the “median survival time compared with UTA” value in series [1] (AcAcDAU 1113.5 mg/kg b.i.d. vs equimolar UTA, result in words) is “longer”. Besides, in series [1] (result in words), the “survival time versus vehicle alone” value is listed as “improved survival time”. In series [2], the “Plasma beta-hydroxybutyrate after oral administration” value is given as “elevated”, the “Plasma uracil after oral administration” value is “elevated” and the “Plasma uridine after oral administration” value was “elevated”. In series [3] (oral, equimolar to 600 mg/Kg UTA, AcAcDAU was the 9.4:1 mixture from Example 1, result in words), the “delivery of uridine and uridine catabolites ([uridine+uracil]) into the circulation compared with equimolar uridine triacetate” value is “more”. Moreover, the “survival at the 10 day time point compared with equimolar UTA” value in series [4] (AcAcDAU 2227 mg/kg b.i.d. vs UTA 2000 mg/kg b.i.d., result in words) is reported as “better survival”. The “survival time versus vehicle alone” value in series [4] (result in words) was “improved survival time”. Besides, in series [4], the “% Survival” value was 100% (10/10).

Consider `CC(=O)CC(=O)OC[C@H]1O[C@@H](n2ccc(=O)[nH]c2=O)[C@H](O)[C@@H]1O` [AcAcU, 5′-O-(acetoacetyl)uridine], for which the “systemic uridine delivery after oral administration” value (from here on “systemic uridine delivery”) in series [3] was “delivered little uridine”.

On to `CCCCCCC(=O)OC[C@H]1O[C@@H](n2ccc(=O)[nH]c2=O)[C@H](OC(C)=O)[C@@H]1OC(C)=O` [DA-HU, 2′,3′-di-O-acetyl-5′-O-heptanoyluridine, reference compound], for which the “systemic uridine delivery” value in series [3] is “relatively poor”.

As to `CC(=O)CC(=O)OC[C@H]1O[C@@H](n2ccc(=O)[nH]c2=O)[C@H](OC(=O)CC(C)=O)[C@@H]1OC(=O)CC(C)=O` [Tri-AcAcU, 2′,3′,5′-tri-O-(acetoacetyl)uridine, reference compound], in series [3], the “systemic uridine delivery” value is recorded as “relatively poor”.

Turning to `CC(=O)OC[C@H]1O[C@@H](n2ccc(=O)[nH]c2=O)[C@H](OC(C)=O)[C@@H]1OC(C)=O` [UTA, 2′,3′,5′-tri-O-acetyluridine, reference compound], the “Median Survival” value in series [1] was 7 days. In addition, the “survival time versus vehicle alone” value in series [1] (result in words) and in series [4] (result in words) was “improved survival time” each time. In addition, the entries for the “% Survival” value in series [1] and in series [4] were 30% (5/10) and 70% (7/10), respectively.

In the case of `O=c1ccn([C@@H]2O[C@H](CO)[C@@H](O)[C@H]2O)c(=O)[nH]1` [uridine], the “bioavailability (oral delivery)” value in series [5] and in series [6] was “approximately 7%” throughout.

Values taken from US12577270B2, “2′,3′-diacetyluridine substituted with acetoacetyl at the 5′ position” (PHARMA CINQ, LLC, priority 2020, dated 2026).
